Reference: paper PMC6152393, “Rational Design of Cyclic Antimicrobial Peptides Based on BPC194 and BPC198” (Molecules : A Journal of Synthetic Chemistry and Natural …, 2017)
Peptide text beside a SMILES is read from it.

Legend:
Type in all cases: cell-based
[1] = tested on: Pseudomonas syringae pv. syringae EPS94; conditions: 48 h
Description: (§1) The antibacterial activity of the designed cyclic peptides was assayed against P. syringae pv. syringae, X. axonopodis pv. vesicatoria, and E. amylovora at 3.1, 6.2, 12.5, 25, and 50 μM. Peptides BPC194 and BPC198 were also included in these assays for comparison purposes.
(§2) The following plant pathogenic bacterial strains were used: Erwinia amylovora PMV6076 (Institut National de la Recherche Agronomique, Angers, France); Pseudomonas syringae pv. syringae EPS94 (Institut de Tecnologia Agroalimentària, Universitat de Girona, Spain); and Xanthomonas axonopodis pv. vesicatoria 2133-2 (Instituto Valenciano de Investigaciones Agrarias, Valencia, Spain). All bacteria were stored in Luria Bertani (LB) broth supplemented with glycerol (20%) and maintained at –80 °C. E. amylovora and P. syringae pv. syringae were scrapped from LB agar after growing for 24 h and X. axonopodis pv. vesicatoria after growing for 48 h at 25 °C. The cell material was suspended in sterile water to obtain a suspension of 10^8 CFU mL^−1.
(§3) Lyophilized peptides were solubilized in sterile Milli-Q water to a final concentration of 1000 μM and sterilized through a 0.22-μm pore filter. For MIC assessment, dilutions of the synthetic peptides were made to obtain a final concentration of 500, 250, 125, 62.5, 31.2, and 15.6 μM. Twenty microlitres of each dilution were mixed in a microtiter plate well with 20 μL of the corresponding suspension of the bacterial indicator and 160 μL of Trypticase Soy Broth (TSB) (BioMèrieux, Craponne, France) to a total volume of 200 μL. Three replicates for each strain, peptide, and concentration were used. Positive controls contained water instead of peptide and negative controls contained peptides without bacterial suspension. Bacterial growth was automatically determined by an optical density measurement at 600 nm (Bioscreen C, Labsystem, Helsinki, Finland). Microplates were incubated at 25 °C with 20 s shaking before hourly absorbance measurements for 48 h. Each experiment was repeated twice. The MIC was taken as the lowest peptide concentration with no growth at the end of the experiment. The inhibition of growth (I) was calculated as a percentage of the positive control using the equation: I = 100 × [(AC − AS)/AC], where AC is the area under the curve of the control, and AS is the area under the curve of a given peptide concentration.

[2] = tested on: Xanthomonas axonopodis pv. vesicatoria 2133-2; conditions: Trypticase Soy Broth, 25 °C, 48 h, OD 600 nm (Bioscreen C), peptides at 3.1, 6.2, 12.5, 25, 50 μM, three replicates, experiment repeated twice, MIC = lowest concentration with no growth
Description: as §1, §2, §3

[3] = tested on: Erwinia amylovora PMV6076; test: Antibacterial activity (MIC), growth inhibition in microtiter plates; conditions: Trypticase Soy Broth, 25 °C, 48 h, OD 600 nm (Bioscreen C), peptides at 3.1, 6.2, 12.5, 25, 50 μM, three replicates, experiment repeated twice, MIC = lowest concentration with no growth
Description: as §1, §2, §3

SMILES | MIC Intervals, Pss [1] [µM] | MIC Intervals, Xav [2] [µM] | MIC Intervals, Ea [3] [µM]
CC(C)C[C@@H]1NC(=O)[C@H](CCCCN)NC(=O)[C@H](CCCCN)NC(=O)[C@H](CCC(N)=O)NC(=O)[C@H](CC(C)C)NC(=O)[C@H](CCCCN)NC(=O)[C@H](CCCCN)NC(=O)[C@H](Cc2ccccc2)NC(=O)[C@H](CCCCN)NC(=O)[C@H](CCCCN)NC1=O [BPC194, c(KKLKKFKKLQ)] (cyclo(FKKLQKKLKK)) | 3.1 to 6.2 | 3.1 to 6.2 | 6.2 to 12.5
CC(C)C[C@@H]1NC(=O)[C@H](CCCCN)NC(=O)[C@H](CCCCN)NC(=O)[C@H](Cc2ccccc2)NC(=O)[C@H](CCCCN)NC(=O)[C@H](CCCCN)NC(=O)[C@H](CCCCN)NC(=O)[C@H](CC(C)C)NC(=O)[C@H](CCCCN)NC(=O)[C@H](CCC(N)=O)NC1=O [BPC198, c(KLKKKFKKLQ)] (cyclo(FKKLQKLKKK)) | 3.1 to 6.2 | 3.1 to 6.2 | 12.5 to 25
CC(C)C[C@@H]1NC(=O)[C@H](CCCCN)NC(=O)[C@H](CCCCN)NC(=O)[C@H](CCCCN)NC(=O)[C@H](Cc2ccccc2)NC(=O)[C@H](CC(C)C)NC(=O)[C@H](CCCCN)NC(=O)[C@H](CCCCN)NC(=O)[C@H](CCCCN)NC(=O)[C@H](CCC(N)=O)NC1=O [BPC480] (cyclo(FKKKLQKKKL)) | 12.5 to 25 | 12.5 to 25 | >50
CC(C)C[C@@H]1NC(=O)[C@H](CCCCN)NC(=O)[C@H](CCC(N)=O)NC(=O)[C@H](CC(C)C)NC(=O)[C@H](CCCCN)NC(=O)[C@H](Cc2ccccc2)NC(=O)[C@H](CCCCN)NC(=O)[C@H](CCCCN)NC(=O)[C@H](CCCCN)NC(=O)[C@H](CCCCN)NC1=O [BPC482] (cyclo(FKLQKLKKKK)) | – | 6.2 to 12.5 | >50
CC(C)C[C@@H]1NC(=O)[C@H](CCC(N)=O)NC(=O)[C@H](CC(C)C)NC(=O)[C@H](Cc2ccccc2)NC(=O)[C@H](CCCCN)NC(=O)[C@H](CCCCN)NC(=O)[C@H](CCCCN)NC(=O)[C@H](CCCCN)NC(=O)[C@H](CCCCN)NC(=O)[C@H](CCCCN)NC1=O [BPC484] (cyclo(FLQLKKKKKK)) | 12.5 to 25 | 25 to 50 | >50
CC(C)C[C@@H]1NC(=O)[C@H](CCC(N)=O)NC(=O)[C@H](Cc2ccccc2)NC(=O)[C@H](CC(C)C)NC(=O)[C@H](CCCCN)NC(=O)[C@H](CCCCN)NC(=O)[C@H](CCCCN)NC(=O)[C@H](CCCCN)NC(=O)[C@H](CCCCN)NC(=O)[C@H](CCCCN)NC1=O [BPC486] (cyclo(FQLKKKKKKL)) | 12.5 to 25 | – | >50
CC(C)C[C@@H]1NC(=O)[C@H](CCCCN)NC(=O)[C@H](CCC(N)=O)NC(=O)[C@H](Cc2ccccc2)NC(=O)[C@H](CCCCN)NC(=O)[C@H](CC(C)C)NC(=O)[C@H](CCCCN)NC(=O)[C@H](CCCCN)NC(=O)[C@H](CCCCN)NC(=O)[C@H](CCCCN)NC1=O [BPC488] (cyclo(FQKLKKKKLK)) | – | 6.2 to 12.5 | >50
CC(C)C[C@@H]1NC(=O)[C@H](CCCCN)NC(=O)[C@H](CCCCN)NC(=O)[C@H](CCC(N)=O)NC(=O)[C@H](Cc2ccccc2)NC(=O)[C@H](CCCCN)NC(=O)[C@H](CCCCN)NC(=O)[C@H](CC(C)C)NC(=O)[C@H](CCCCN)NC(=O)[C@H](CCCCN)NC1=O [BPC490] (cyclo(FQKKLKKLKK)) | – | 3.1 to 6.2 | 12.5 to 25
CC(C)C[C@@H]1NC(=O)[C@H](CCCCN)NC(=O)[C@H](CCCCN)NC(=O)[C@H](CCCCN)NC(=O)[C@H](CCC(N)=O)NC(=O)[C@H](Cc2ccccc2)NC(=O)[C@H](CCCCN)NC(=O)[C@H](CCCCN)NC(=O)[C@H](CCCCN)NC(=O)[C@H](CC(C)C)NC1=O [BPC492] (cyclo(FQKKKLLKKK)) | 12.5 to 25 | 12.5 to 25 | >50
CC(C)C[C@@H]1NC(=O)[C@H](CCC(N)=O)NC(=O)[C@H](CCCCN)NC(=O)[C@H](CCCCN)NC(=O)[C@H](CC(C)C)NC(=O)[C@H](Cc2ccccc2)NC(=O)[C@H](CCCCN)NC(=O)[C@H](CCCCN)NC(=O)[C@H](CCCCN)NC(=O)[C@H](CCCCN)NC1=O [BPC494] (cyclo(FLKKQLKKKK)) | 6.2 to 12.5 | 6.2 to 12.5 | >50
CC(C)C[C@@H]1NC(=O)[C@H](CCC(N)=O)NC(=O)[C@H](CC(C)C)NC(=O)[C@H](CCCCN)NC(=O)[C@H](CCCCN)NC(=O)[C@H](CCCCN)NC(=O)[C@H](CCCCN)NC(=O)[C@H](Cc2ccccc2)NC(=O)[C@H](CCCCN)NC(=O)[C@H](CCCCN)NC1=O [BPC496] (cyclo(FKKKKLQLKK)) | 6.2 to 12.5 | 6.2 to 12.5 | >50
CC(C)C[C@@H]1NC(=O)[C@H](CCCCN)NC(=O)[C@H](CCC(N)=O)NC(=O)[C@H](CCCCN)NC(=O)[C@H](CCCCN)NC(=O)[C@H](CC(C)C)NC(=O)[C@H](Cc2ccccc2)NC(=O)[C@H](CCCCN)NC(=O)[C@H](CCCCN)NC(=O)[C@H](CCCCN)NC1=O [BPC914] (cyclo(FLKKQKLKKK)) | 12.5 to 25 | 12.5 to 25 | >50
CC(C)C[C@@H]1NC(=O)[C@H](CCCCN)NC(=O)[C@H](CCCCN)NC(=O)[C@H](CCCCN)NC(=O)[C@H](CCCCN)NC(=O)[C@H](Cc2ccccc2)NC(=O)[C@H](CCCCN)NC(=O)[C@H](CC(C)C)NC(=O)[C@H](CCCCN)NC(=O)[C@H](CCC(N)=O)NC1=O [BPC916] (cyclo(FKKKKLQKLK)) | 6.2 to 12.5 | 12.5 to 25 | >50
CC(C)C[C@@H]1NC(=O)[C@H](CCCCN)NC(=O)[C@H](CCCCN)NC(=O)[C@H](CCCCN)NC(=O)[C@H](Cc2ccccc2)NC(=O)[C@H](CCCCN)NC(=O)[C@H](CCC(N)=O)NC(=O)[C@H](CC(C)C)NC(=O)[C@H](CCCCN)NC(=O)[C@H](CCCCN)NC1=O [BPC918] (cyclo(FKKKLKKLQK)) | – | 1.6 to 3.1 | 12.5 to 25
CC(C)C[C@@H]1NC(=O)[C@H](CCCCN)NC(=O)[C@H](CCCCN)NC(=O)[C@H](CCCCN)NC(=O)[C@H](Cc2ccccc2)NC(=O)[C@H](CCCCN)NC(=O)[C@H](CCC(N)=O)NC(=O)[C@H](CCCCN)NC(=O)[C@H](CCCCN)NC(=O)[C@H](CC(C)C)NC1=O [BPC920] (cyclo(FKKKLLKKQK)) | 12.5 to 25 | 25 to 50 | >50
CC(C)C[C@@H]1NC(=O)[C@H](CCCCN)NC(=O)[C@H](CCCCN)NC(=O)[C@H](CCCCN)NC(=O)[C@H](CCCCN)NC(=O)[C@H](CC(C)C)NC(=O)[C@H](CCCCN)NC(=O)[C@H](Cc2ccccc2)NC(=O)[C@H](CCCCN)NC(=O)[C@H](CCC(N)=O)NC1=O [BPC922] (cyclo(FKLKKKKLQK)) | 12.5 to 25 | 12.5 to 25 | >50
CC(C)C[C@@H]1NC(=O)[C@H](CCCCN)NC(=O)[C@H](CCCCN)NC(=O)[C@H](CCCCN)NC(=O)[C@H](CC(C)C)NC(=O)[C@H](CCCCN)NC(=O)[C@H](CCC(N)=O)NC(=O)[C@H](Cc2ccccc2)NC(=O)[C@H](CCCCN)NC(=O)[C@H](CCCCN)NC1=O [BPC924] (cyclo(FQKLKKKLKK)) | – | 1.6 to 3.1 | 12.5 to 25
